Reference: the NIST ThermoML archive (doi:10.1007/s10765-011-0989-8)

Conditions: 101 kPa, Liquid; for viscosity: Capillary tube (Ostwald / Ubbelohde) method; for mass density: Pycnometric method

CO [methanol]
Conditions	mass density [kg/m3]	viscosity [mPa·s]
293.15 K	791	0.595
298.15 K	786.4	0.552
303.15 K	781.8	0.514
308.15 K	777.2	0.478
313.15 K	771.8	0.449
323.15 K	762.3	0.394
333.15 K	752.4	0.349
